Source: patent US7001611B2, “Compositions normalizing circadian rhythm” (Suntory Limited, priority 2000, dated 2006)
“Also recorded” adds a separate entry of the source.

Assays:
Wistar rats = test: Circadian rhythm measuring method: amount of daily (spontaneous) movements of rats counted with an infrared sensor under a 12-hour light / 12-hour dark cycle; format: in vivo, rat; conditions: for ratio of activity in the light period to the total amount of movements (averages): Example 2, vs control group, astaxanthin diet, melatonin water (about 1 mg/day) or both, FIG. 5; for enhancive effect on the circadian rhythm normalizing action of melatonin: Example 3
Excerpt: To search for a substance having the action of normalizing the circadian rhythm, the inventors of the present invention conducted studies on various substances with the use of a circadian rhythm measuring method, with the amount of spontaneous movement of rats as an indicator, in an environment controlled to have a 12-hour light period and a 12-hour dark period. As a result, the inventors have clarified that astaxanthin, which is one of carotenoids, and/or its ester has a circadian rhythm normalizing action. […] These findings led them to accomplish the present invention. The influence of astaxanthin on daily movements was investigated in rats. Rats have the habit of resting (sleeping) mainly in the light period, and acting in the dark period. The circadian rhythm of rats was investigated by measuring the amount of daily movements continuously, and examining changes over time in the amounts of movements in the light period and the dark period. Four-week-old male Wistar rats (purchased from Nippon […]) were preliminarily reared for one week, and subjected to experiments at the age of 5 weeks. The rats were randomly divided into two groups (5 to 6 rats/group), and one of the groups was used as a control diet (low tocopherol) group, while the other group was used as an astaxanthin diet group, each group receiving the designated diet for 4 weeks. The animals were reared in animal cages kept at room temperature of 23.5±1° C. and a humidity of 55±5%, and the feed and water were provided ad libitum. Astaxanthin used was astaxanthin extracted from […] purified (an oil containing 15% of astaxanthin as a free compound; a product of Itano Refrigerating Co.). The rats were individually reared in a box equipped with an infrared sensor, and the amount of movements was counted with the infrared sensor. That is, each time the animal passed the infrared sensor, the passage was taken as one count. The counts taken were accumulated, and expressed as the amount of movements (counts). Statistical treatment was performed using ANOVA and student t-test. A period of 1 week after start of rearing with the experimental diet was set as a tuning period in which the animal was tuned to a 12-hour dark period and a 12-hour light period. Then, from the 2nd week, the amount of daily movements was continuously measured for 3 weeks. The total amount of movements, and the ratio of movements in the light period to the total amount of movements (i.e., the amount of movements in the light period/the total amount of movements×100 (%)) were calculated every day. […] The averages of the ratio (%) of movements in the light period were compared in both groups (FIG. 3). […] Four-week-old male Wistar rats (purchased from Nippon […]) were preliminarily reared for one week, and subjected to experiments at the age of 5 weeks. The rats were randomly divided into two groups (10 to 11 rats/group), and the two groups were given a control diet (low tocopherol diet) and an astaxanthin diet (Table 1), respectively. Each group was further divided into two groups (5 to 6 rats/group), which received distilled water and melatonin water, respectively, for 4 weeks. The animals were reared in animal cages kept at room temperature of 23.5±1° C. and a humidity of 55±5%, and the feed and water were provided ad libitum. Melatonin was dissolved in water at a concentration of 0.5 mg/100 ml, and the solution was given ad lib, as drinking water. The intake of melatonin, calculated from the amount of water taken by rats, was about 1 mg/day. After start of rearing with the experimental diet, a tuning period of 1 week was provided. Then, the amount of movements of rats was measured as in Example 1 for 3 weeks to look into changes in the circadian rhythm. No differences were noted among the averages of the total amount of movements in the respective groups (FIG. 4). […]

[1] = Yamashita 1992; cited from earlier work
[2] = tested on: lipid peroxides in the brain; conditions: dose 1/100 the dose of α-tocopherol; Nishigaki et al. 1994; cited from earlier work
[3] = Example 4, tocopherol-deficient basic feed, FIG. 9

| Structure (SMILES) | total amount of movements (day-to-day changes) (Wistar rats; Example 1, astaxanthin diet (0.3 g/kg of oil containing 15% astaxanthin) vs control low tocopherol diet, 3 weeks, FIG. 1) | average of the ratio (%) of movements in the light period (Wistar rats; Example 1, astaxanthin diet group vs control, FIG. 3) | ratio of movements in the light period to the total amount of movements (day-to-day changes) (Wistar rats; Example 1, astaxanthin diet vs control low tocopherol diet, 3 weeks, FIG. 2) | ratio of activity in the light period to the total amount of movements (averages) (Wistar rats) | enhancive effect on the circadian rhythm normalizing action of melatonin (Wistar rats; 0.0045% astaxanthin diet with melatonin water, FIG. 8) | total amount of movements (Wistar rats; Example 4, maximum dose of 1.5 g/kg diet, tocopherol-deficient basic feed, FIG. 10) | doses at which the decrease of the ratio of activity in the light period was significant (Wistar rats; [3]) | minimum dose at which the ratio of activity in the light period decreased (Wistar rats; [3]) | ratio of activity in the light period to the total amount of movements (dose dependency) (Wistar rats; Example 4, tocopherol-deficient basic feed, astaxanthin diets 0.15, 0.3, 0.6, 1.5 g/kg, FIG. 9) | antioxidant action compared with α-tocopherol [1] | increases in lipid peroxides in the brain caused by irradiation with 60Co [2] | enhancive effect on the circadian rhythm normalizing action of melatonin (Wistar rats; 0.001% tocopherol diet with melatonin water, FIG. 6) | enhancive effect on the circadian rhythm normalizing action of melatonin (Wistar rats; 0.005% tocopherol diet with melatonin water, FIG. 7) | enhancive effect on the circadian rhythm normalizing action of melatonin (Wistar rats; 0.005% tocopherol diet with melatonin water, FIG. 7, listed as tocopherol) |
| --- | --- | --- | --- | --- | --- | --- | --- | --- | --- | --- | --- | --- | --- | --- |
| CC1=C(/C=C/C(C)=C/C=C/C(C)=C/C=C/C=C(C)/C=C/C=C(C)/C=C/C2=C(C)C(=O)[C@@H](O)CC2(C)C)C(C)(C)C[C@H](O)C1=O [Astaxanthin, astaxanthin] | did not affect the total amount of movements | significant decrease in the ratio of movements in the light period | lowered the ratio of movements in the light period | tendency toward a decrease in the ratio of activity in the light period | enhance the circadian rhythm normalizing action of melatonin significantly; also recorded: more potent effect of enhancing the circadian rhythm normalizing action of melatonin than does α-tocopherol | tended to increase | ≥ 0.3 g/kg diet | 0.15 g/kg diet | decreased in an astaxanthin concentration-dependent manner | more potent than that of α-tocopherol | can suppress increases in lipid peroxides in the brain |  |  |  |
| Cc1c(C)c2c(c(C)c1O)CC[C@@](C)(CCC[C@H](C)CCC[C@H](C)CCCC(C)C)O2 [α-tocopherol, reference compound] |  |  |  |  |  |  |  |  |  |  |  | no effect of enhancing the circadian rhythm normalizing action of melatonin | no effect of enhancing the circadian rhythm normalizing action of melatonin | slight enhancive effect |
| COc1ccc2[nH]cc(CCNC(C)=O)c2c1 [melatonin, reference compound] |  |  |  | tendency toward a decrease in the ratio of activity in the light period |  |  |  |  |  |  |  |  |  |  |
